Test results taken from US4421912A, “Cephalosporin derivatives” (Takeda Chemical Industries, Ltd., priority 1973, dated 1983).
Values after ≈ are worked out from the molar mass of the structure shown. Where two headings read alike, the source gives them in different places.

Assays:
P. morganii Eb53 = assay: Antibacterial spectra, agar dilution method; assay type: cell-based; settings: Morganella morganii
From the text: (§1) (mcg/ml, agar dilution method)
(§2) (mcg./ml., agar dilution method)

K. pneumoniae DT = assay: Antibacterial spectra, agar dilution method; assay type: cell-based; settings: Klebsiella pneumoniae
E. coli T-7 = assay: Antibacterial spectra, agar dilution method; assay type: cell-based; settings: Escherichia coli
From the text: (§3) |(mcg./ml., agar dilution method)

P. vulgaris IFO 3988 = assay: Antibacterial spectra, agar dilution method; assay type: cell-based; settings: Proteus vulgaris, IFO3988; P. vulgaris IFO 3988; agar dilution method; Table 11; read-out: Antibacterial spectra
From the text: as §3

S. aureus 209P = assay: Antibacterial spectra, agar dilution method; assay type: cell-based; settings: for MIC: Staphylococcus aureus, 209P
From the text: (§4) (mcg/ml., agar dilution method)
as §4, §1, §2

E. coli 0-111 = assay: Antibacterial spectra, agar dilution method; assay type: cell-based
From the text: as §4, §4, §1, §2

S. aureus 1840 = assay: Antibacterial spectra, agar dilution method; assay type: cell-based
From the text: as §4, §4, §1, §2

E. coli NIHJ JC-2 = assay: Antibacterial spectra, agar dilution method; assay type: cell-based; settings: Escherichia coli
From the text: as §4, §4, §1, §2

Escherichia coli 0111 = assay: Protective Effect on Infected Mice; assay type: in vivo; settings: Escherichia coli, 0111, sc, 168 h, Table 14; male ICR/SLC mice; i.p. E. coli 0111; single subcutaneous dose immediately after challenge; 7 days; read-out: ED50
From the text: Protective Effect (ED50 * , mg/kg) on Infected Mice
*Test animals: male mice (ICR/SLC) 5 mice per group per single dose
Infection: intraperitoneally with Escherichia coli 0111
Administration: a single subcutaneous dose immediately after challenge
Observation period: 7 days
*Test animals: male mice (ICR/SLC) 5 mice per group single dose

[1] = EB53, read-out: Antibacterial spectra
[2] = T7, E. coli T-7, agar dilution method, Table 11, read-out: Antibacterial spectra
[3] = read-out: Antibacterial spectra, S. aureus 209P, Table 11
[4] = Escherichia coli, 0111, E. coli 0-111, Table 11
[5] = Staphylococcus aureus, 1840, read-out: Antibacterial spectra, S. aureus 1840, Table 11
[6] = NIHJJC2, read-out: Antibacterial spectra, E. coli NIHJ JC-2, Table 11
[7] = P. morganii Eb53, agar dilution method, Table 11, read-out: Antibacterial spectra
[8] = NIHJJC2, E. coli NIHJ JC-2, Table 11, read-out: Antibacterial spectra
[9] = T7, read-out: Antibacterial spectra
[10] = read-out: Antibacterial spectra, S. aureus 209P, tables in the Examples
[11] = Escherichia coli, 0111, E. coli 0-111, tables in the Examples
[12] = Staphylococcus aureus, 1840, read-out: Antibacterial spectra, S. aureus 1840, tables in the Examples

| Structure (SMILES) | MIC (K. pneumoniae DT; Table 11) [µg/mL] | MIC (P. vulgaris IFO 3988) [µg/mL] | MIC (S. aureus 209P; [3]) [µg/mL] | MIC (E. coli 0-111; [4]) [µg/mL] | MIC (S. aureus 1840; [5]) [µg/mL] | MIC (E. coli NIHJ JC-2; [6]) [µg/mL] | MIC (E. coli NIHJ JC-2; [8]) [µg/mL] | also measured |
| --- | --- | --- | --- | --- | --- | --- | --- | --- |
| Cn1c(N)nnc1SCC1=C(C(=O)O)N2C(=O)C(NC(=O)Cc3csc(N)n3)C2SC1 (stereo not shown) [Compound 31] | ≤ 0.1 | 0.2 (≈ 0.414 µM) | 0.78 (≈ 1.62 µM) | ≤ 0.1 | 1.56 (≈ 3.23 µM) | 0.2 (≈ 0.414 µM) |  | MIC (P. morganii Eb53; [1]): 1.56 µg/mL (≈ 3.23 µM); MIC (E. coli T-7; [2]): 3.13 µg/mL (≈ 6.49 µM) |
| Cc1cnc(SCC2=C(C(=O)O)N3C(=O)C(NC(=O)Cc4csc(N)n4)C3SC2)nc1N (stereo not shown) [Compound 32] | 0.39 (≈ 0.79 µM) | 0.78 (≈ 1.58 µM) | 0.2 (≈ 0.405 µM) | 0.78 (≈ 1.58 µM) | 1.56 (≈ 3.16 µM) |  | 1.56 (≈ 3.16 µM) | MIC (P. morganii Eb53; [7]): 100 µg/mL (≈ 203 µM); MIC (E. coli T-7; [2]): 50 µg/mL (≈ 101 µM) |
| Cc1nnc(SCC2=C(C(=O)O)N3C(=O)C(NC(=O)Cc4csc(N)n4)C3SC2)o1 (stereo not shown) [Compound 38] | 0.39 (≈ 0.832 µM) |  | 0.39 (≈ 0.832 µM) | 0.39 (≈ 0.832 µM) | 0.78 (≈ 1.66 µM) |  | 1.56 (≈ 3.33 µM) | MIC (P. morganii Eb53; [7]): 25 µg/mL (≈ 53.4 µM) |
| Nc1nc(CC(=O)NC2C(=O)N3C(C(=O)O)=C(CSc4nnc[nH]4)CSC23)cs1 (stereo not shown) [Compound 41] | 0.2 (≈ 0.441 µM) |  | 0.39 (≈ 0.86 µM) | 0.78 (≈ 1.72 µM) | 0.78 (≈ 1.72 µM) | 0.78 (≈ 1.72 µM) |  | MIC (P. morganii Eb53; [7]): 25 µg/mL (≈ 55.1 µM) |
| Cc1nnc(SCC2=C(C(=O)O)N3C(=O)C(NC(=O)Cc4csc(N)n4)C3SC2)n1C (stereo not shown) [Compound 42] | 0.1 (≈ 0.208 µM) |  | 0.39 (≈ 0.81 µM) | 0.1 (≈ 0.208 µM) | 1.56 (≈ 3.24 µM) | 0.2 (≈ 0.415 µM) |  | MIC (P. morganii Eb53; [1]): 1.56 µg/mL (≈ 3.24 µM); ED50 (Escherichia coli 0111): 0.38 mg/kg |
| Cn1ccnc1SCC1=C(C(=O)O)N2C(=O)C(NC(=O)Cc3csc(N)n3)C2SC1 (stereo not shown) [Compound 44] | 0.39 (≈ 0.836 µM) | 0.39 (≈ 0.836 µM) | 0.39 (≈ 0.836 µM) | 0.39 (≈ 0.836 µM) | 1.56 (≈ 3.34 µM) | 0.78 (≈ 1.67 µM) |  | MIC (E. coli T-7; [9]): 6.25 µg/mL (≈ 13.4 µM) |
| Nc1nc(CC(=O)NC2C(=O)N3C(C(=O)O)=C(CSc4nnc(C(F)(F)F)s4)CSC23)cs1 (stereo not shown) [Compound 45] | 0.78 (≈ 1.45 µM) | 0.78 (≈ 1.45 µM) | ≤ 0.2 | 0.78 (≈ 1.45 µM) | 0.78 (≈ 1.45 µM) |  | 3.13 (≈ 5.81 µM) | MIC (E. coli T-7; [2]): 25 µg/mL (≈ 46.4 µM) |
| Cc1csc(SCC2=C(C(=O)O)N3C(=O)C(NC(=O)Cc4csc(N)n4)C3SC2)n1 (stereo not shown) [Compound 47] | 0.39 (≈ 0.806 µM) | 0.39 (≈ 0.806 µM) | ≤ 0.2 | 0.78 (≈ 1.61 µM) | 0.78 (≈ 1.61 µM) |  | 1.56 (≈ 3.23 µM) | MIC (E. coli T-7; [9]): 12.5 µg/mL (≈ 25.8 µM) |
| Cc1nnc(SCC2=C(C(=O)O)N3C(=O)C(NC(=O)Cc4csc(=O)[nH]4)[C@H]3SC2)s1 (stereo partly shown) [Compound 55, 7-[2-(2-oxo-4-thiazolin-4-yl)acetamido]-3-(5-methyl-1,3,4-thiadiazol-2-yl)thiomethyl-3-cephem-4-carboxylic acid] | 1.56 (≈ 3.21 µM) |  | 0.2 (≈ 0.412 µM) | 0.78 (≈ 1.61 µM) | 0.78 (≈ 1.61 µM) |  | 1.56 (≈ 3.21 µM) |  |
| Cn1nnnc1SCC1=C(C(=O)O)N2C(=O)C(NC(=O)Cc3csc(=S)[nH]3)C2SC1 (stereo not shown) [Compound 64] | < 0.78 |  | < 0.78 | 1.56 (≈ 3.21 µM) | 1.56 (≈ 3.21 µM) |  |  |  |
| Cn1nnnc1SCC1=C(C(=O)O)N2C(=O)C(NC(=O)Cc3csc(=O)[nH]3)[C@H]2SC1 (stereo partly shown) [Example 2, 7-[2-(2-oxo-4-thiazolin-4-yl)acetamido]-3-(1-methyltetrazol-5-yl)thiomethyl-3-cephem-4-carboxylic acid] |  |  |  |  |  |  |  | MIC (K. pneumoniae DT; tables in the Examples): < 0.78 µg/mL; MIC (S. aureus 209P; [10]): < 0.78 µg/mL; MIC (E. coli 0-111; [11]): < 0.78 µg/mL; MIC (S. aureus 1840; [12]): < 0.78 µg/mL; MIC (E. coli NIHJ JC-2; NIHJJC2, read-out: Antibacterial spectra, E. coli NIHJ JC-2, tables in the Examples): < 0.78 µg/mL |
| O=C(Cc1csc(=O)[nH]1)NC1C(=O)N2C(C(=O)O)=C(CSc3nncs3)CS[C@H]12 (stereo partly shown) [Example 4, 7-[2-(2-oxo-4-thiazolin-4-yl)acetamido]-3-(1,3,4-thiadiazol-2-yl)thiomethyl-3-cephem-4-carboxylic acid] |  |  |  |  |  |  |  | MIC (K. pneumoniae DT; tables in the Examples): 1.56 µg/mL (≈ 3.31 µM); MIC (S. aureus 209P; [10]): < 0.78 µg/mL; MIC (E. coli 0-111; [11]): 1.56 µg/mL (≈ 3.31 µM); MIC (S. aureus 1840; [12]): < 0.78 µg/mL |
| CC(=O)OCC1=C(C(=O)[O-])N2C(=O)C(NC(=O)Cc3csc(=S)[nH]3)[C@H]2SC1.[Na+] (stereo partly shown) [Example 21, sodium 7-[2-(2-thioxo-4-thiazolin-4-yl)-acetamido]-3-acetoxymethyl-3-cephem-4-carboxylate] |  |  |  |  |  |  |  | Antibacterial spectra (S. aureus 209P; S. aureus 209P, tables in the Examples): < 0.78 µg/mL; Antibacterial spectra (S. aureus 1840; S. aureus 1840, tables in the Examples): 1.56 µg/mL |
